Patent US20140154317A1, “Pharmaceutical Composition for Treatment of Helicobacter Pylori Associated Diseases” (priority 2012, published 2014)

Key:
CXCR4 [1] = assay: CXCR4 protein expression, Western blot of whole-cell extracts of gastric cancer cells; format: cell-based; conditions: 5.0 μm, 6 h, line not given
Experimental: Different tumor cell types, namely gastric cancer (AGS, MKN45, and SNU16) cells were incubated with different components of the composition as well as a combination according to the finished product for 6 h. Whole-cell extracts were prepared and analyzed by Western blot analysis using antibody against CXCR4. The same blots were stripped and reprobed with β-actin antibody to show equal protein loading. Representative results of three independent experiments are shown.
The same experiment was carried out to find out whether the composition downregulates expression of CXCR4 in gastric (AGS, MKN45, and SNU16) cancer cell lines, which has never been investigated before. Cells were treated with 5 μm active ingredients of Ex. 6 and its major active components for 6 h before assessing the resultant effect on CXCR4 expression.
(A) MDA-MB-231 (2×10^5 cells) were seeded in the top-chamber of the Matrigel. After pre-incubation with or without the composition according to Ex. 6 and its major active components (5 μm) for 6 h, transwell chambers were then placed into the wells of a 24-well plate, in which we had added either the basal medium only or basal medium containing 10 ng/ml CXCL12 for 24 h. After incubation, they were assessed for cell invasion. Columns indicate mean percentage of invaded cells; bars, S.E. *, […]. (B) AGS (2×10^5 cells) were seeded in the top-chamber of the Matrigel. After preincubation with or without the composition and its major active components (5 μm) for 6 h, transwell chambers were then placed into the wells of a 24-well plate, in which we had added either the basal medium only or basal medium containing […] CXCL12 for 24 h. After incubation, the chambers were assessed for cell invasion. Columns indicate mean percentage of invaded cells; bars, S.E. *, […]. Representative results of three independent experiments are shown. […] Total RNA was isolated and analyzed by RT-PCR assay. […] Whole-cell extracts were prepared and analyzed by Western blot analysis using antibodies against CXCR4. […]

CXCR4 mRNA = CXCR4 mRNA expression by RT-PCR in AGS cells; format: cell-based; conditions: 5 μm
Experimental: (§1) (A) MDA-MB-231 (2×10^5 cells) were seeded in the top-chamber of the Matrigel. After pre-incubation with or without the composition according to Ex. 6 and its major active components (5 μm) for 6 h, transwell chambers were then placed into the wells of a 24-well plate, in which we had added either the basal medium only or basal medium containing 10 ng/ml CXCL12 for 24 h. After incubation, they were assessed for cell invasion. Columns indicate mean percentage of invaded cells; bars, S.E. *, P>0.05. (B) AGS (2×10^5 cells) were seeded in the top-chamber of the Matrigel. After preincubation with or without the composition and its major active components (5 μm) for 6 h, transwell chambers were then placed into the wells of a 24-well plate, in which we had added either the basal medium only or basal medium containing 100 ng/ml CXCL12 for 24 h. After incubation, the chambers were assessed for cell invasion. Columns indicate mean percentage of invaded cells; bars, S.E. *, P>0.05. Representative results of three independent experiments are shown. […] AGS cells were treated with 5 μm of the composition and its major active components for indicated times. Total RNA was isolated and analyzed by RT-PCR assay. […] Representative results of three independent experiments are shown. […] Cells were incubated with 5 μm of the active ingredients of the composition and its single major active components for indicated times. Whole-cell extracts were prepared and analyzed by Western blot analysis using antibodies against CXCR4. The same blots were stripped and reprobed with β-actin antibody to show equal protein loading. Representative results of three independent experiments are shown.

AGS cells = assay: Matrigel transwell invasion assay with CXCL12, AGS; format: cell-based; conditions: 5 μm, cell line not given
Experimental: as §1, with “[…],” for “After preincubation with or without the composition and its major active components (5 μm) for 6 h,”, “which we had added either the basal medium only or basal medium containing 100 ng/ml CXCL12 for 24 h.” left out

CXCR4 [2] = assay: CXCR4 protein expression, Western blot of whole-cell extracts of gastric cancer cells; format: cell-based; conditions: 6 h, line not given
[3] = cited from earlier work
[4] = tested on: gram positive and gram negative, aerobic, and anaerobic bacteria; conditions: in vivo or in vitro; cited from earlier work

Compound	Fold change (CXCR4 expression) (CXCR4 [1])	mRNA fold change (CXCR4) (CXCR4 mRNA; time 0 hours)	mRNA fold change (CXCR4) (CXCR4 mRNA; time 2 hours)	mRNA fold change (CXCR4) (CXCR4 mRNA; time 6 hours)	mRNA fold change (CXCR4) (CXCR4 mRNA; time 8 hours)	mRNA fold change (CXCR4) (CXCR4 mRNA; time 12 hours)	mRNA fold change (CXCR4) (CXCR4 mRNA; time 24 hours)	Percentage of invade cells (AGS cells; time 0 hours)	Percentage of invade cells (AGS cells; time 2 hours)	Percentage of invade cells (AGS cells; time 6 hours)	Percentage of invade cells (AGS cells; time 8 hours)	Percentage of invade cells (AGS cells; time 12 hours)	Percentage of invade cells (AGS cells; time 24 hours)	Fold change (CXCR4 expression) (CXCR4 [2]; 0.5 μm)	Fold change (CXCR4 expression) (CXCR4 [2]; 1.0 μm)	Fold change (CXCR4 expression) (CXCR4 [2]; 2.5 μm)	cumulative dose shown safe and well tolerated ([3]; cumulative doses)	systemic dose shown safe and well tolerated ([3]; systemic doses)	Resistance (in words) [4]
CC[C@H]1OC(=O)[C@H](C)[C@@H](O[C@H]2C[C@@](C)(OC)[C@@H](O)[C@H](C)O2)[C@H](C)[C@@H](O[C@@H]2O[C@H](C)C[C@H](N(C)C)[C@H]2O)[C@](C)(OC)C[C@@H](C)C(=O)[C@H](C)[C@@H](O)[C@]1(C)O [CLR, clarithromycin]	0.44 ± 0.01	0.90 ± 0.05	0.78 ± 0.02	0.63 ± 0.03	0.50 ± 0.03	0.42 ± 0.03	0.37 ± 0.03	85.23 ± 11.51%	80.22 ± 10.25%	77.26 ± 9.14%	62.27 ± 6.50%	55.20 ± 7.10%	48.20 ± 6.15%	1.3 ± 0.01	0.97 ± 0.01	0.79 ± 0.04	–	–	–
COc1ccc2[nH]c([S+]([O-])Cc3ncc(C)c(OC)c3C)nc2c1 (stereo not drawn) [PPI, Omeprazol]	0.46 ± 0.02	0.92 ± 0.02	0.88 ± 0.021	0.67 ± 0.06	0.54 ± 0.04	0.41 ± 0.04	0.38 ± 0.04	85.23 ± 11.51%	82.10 ± 15.10%	74.11 ± 6.25%	60.12 ± 11.50%	49.25 ± 7.26%	39.25 ± 4.15%	1.4 ± 0.02	0.96 ± 0.03	0.81 ± 0.05	–	–	–
CCS(=O)(=O)CCn1c([N+](=O)[O-])cnc1C [TND, tinidazole]	0.53 ± 0.03	0.94 ± 0.02	0.83 ± 0.01	0.79 ± 0.04	0.65 ± 0.03	0.51 ± 0.03	0.39 ± 0.03	85.23 ± 11.51%	81.10 ± 14.20%	72.55 ± 8.10%	64.65 ± 10.11%	51.33 ± 8.20%	42.25 ± 8.55%	1.4 ± 0.01	0.98 ± 0.01	0.85 ± 0.01	–	–	–
O=S1(=O)CCN(CN2CCS(=O)(=O)NC2)CN1 [Taurolidine, [bis(1,1-dioxoperhydro-1,2,4-thiadiazinyl-4)]-methane]	–	–	–	–	–	–	–	–	–	–	–	–	–	–	–	–	≥ 300 g	exceeding 40 g/day	has not been observed
